Data as given in PubChem BioAssay AID1259407 (Chemical Carcinogenesis Research Information System (CCRIS), 2018).
Activity calls are given as the source filed them. How the calls were made is not given here.

Tested on: CCRIS mutagenicity, Ames/micronucleus/aberration tests
Assay: CCRIS mutagenicity studies
[1] = Test System: AMES SALMONELLA TYPHIMURIUM, Strain/Indicator: TA98, Metabolic Activation: NONE, Method: STANDARD PLATE
[2] = Test System: AMES SALMONELLA TYPHIMURIUM, Strain/Indicator: TA100, Metabolic Activation: NONE, Method: STANDARD PLATE
[3] = Test System: AMES SALMONELLA TYPHIMURIUM, Strain/Indicator: TA98, Metabolic Activation: RAT, LIVER, S-9, AROCLOR 1254, Method: STANDARD PLATE
[4] = Test System: AMES SALMONELLA TYPHIMURIUM, Strain/Indicator: TA100, Metabolic Activation: RAT, LIVER, S-9, AROCLOR 1254, Method: STANDARD PLATE
[5] = Test System: E. COLI, Strain/Indicator: WP2 UVRA, Metabolic Activation: NONE, Method: STANDARD PLATE

Measured: mutagenic call

C=Cc1ccc(O)c(C=C)c1
inactive: [1] inactive; negative | Test System: AMES SALMONELLA TYPHIMURIUM, Strain/Indicator: TA98, Metabolic Activation: S-9, Method: STANDARD PLATE inactive; negative | [2] inactive; negative | Test System: AMES SALMONELLA TYPHIMURIUM, Strain/Indicator: TA100, Metabolic Activation: S-9, Method: STANDARD PLATE inactive; negative

ClC(Cl)=C(Cl)c1c(Cl)c(Cl)c(Cl)c(Cl)c1Cl
inactive: [1] inactive; negative | [3] inactive; negative | [2] inactive; negative | [4] inactive; negative

CC(=O)c1ccncc1
active: End Point: IN VITRO CHROMOSOMAL ABERRATIONS, Test System: CHO-LB CELLS, Metabolic Activation: RAT, LIVER, S-9, AROCLOR 1254 active; positive
inactive: Test System: AMES SALMONELLA TYPHIMURIUM, Strain/Indicator: TA97, Metabolic Activation: HAMSTER, LIVER, S-9, AROCLOR 1254 (10 OR 30%), Method: PREINCUBATION inactive; negative | Test System: AMES SALMONELLA TYPHIMURIUM, Strain/Indicator: TA97, Metabolic Activation: NONE, Method: PREINCUBATION inactive; negative | Test System: AMES SALMONELLA TYPHIMURIUM, Strain/Indicator: TA97, Metabolic Activation: RAT, LIVER, S-9, AROCLOR 1254 (10 OR 30%), Method: PREINCUBATION inactive; negative | Test System: AMES SALMONELLA TYPHIMURIUM, Strain/Indicator: TA98, Metabolic Activation: HAMSTER, LIVER, S-9, AROCLOR 1254 (10 OR 30%), Method: PREINCUBATION inactive; negative | Test System: AMES SALMONELLA TYPHIMURIUM, Strain/Indicator: TA98, Metabolic Activation: NONE, Method: PREINCUBATION inactive; negative | Test System: AMES SALMONELLA TYPHIMURIUM, Strain/Indicator: TA98, Metabolic Activation: RAT, LIVER, S-9, AROCLOR 1254 (10 OR 30%), Method: PREINCUBATION inactive; negative | Test System: AMES SALMONELLA TYPHIMURIUM, Strain/Indicator: TA100, Metabolic Activation: HAMSTER, LIVER, S-9, AROCLOR 1254 (10 OR 30%), Method: PREINCUBATION inactive; negative | Test System: AMES SALMONELLA TYPHIMURIUM, Strain/Indicator: TA100, Metabolic Activation: NONE, Method: PREINCUBATION inactive; negative | Test System: AMES SALMONELLA TYPHIMURIUM, Strain/Indicator: TA100, Metabolic Activation: RAT, LIVER, S-9, AROCLOR 1254 (10 OR 30%), Method: PREINCUBATION inactive; negative | Test System: AMES SALMONELLA TYPHIMURIUM, Strain/Indicator: TA1535, Metabolic Activation: HAMSTER, LIVER, S-9, AROCLOR 1254 (10 OR 30%), Method: PREINCUBATION inactive; negative | Test System: AMES SALMONELLA TYPHIMURIUM, Strain/Indicator: TA1535, Metabolic Activation: NONE, Method: PREINCUBATION inactive; negative | Test System: AMES SALMONELLA TYPHIMURIUM, Strain/Indicator: TA1535, Metabolic Activation: RAT, LIVER, S-9, AROCLOR 1254 (10 OR 30%), Method: PREINCUBATION inactive; negative

COc1cc(C=O)ccc1O
inactive: [1] inactive; negative | [3] inactive; negative | [2] inactive; negative | [4] inactive; negative | Test System: AMES SALMONELLA TYPHIMURIUM, Strain/Indicator: TA1535, Metabolic Activation: RAT, LIVER, S-9, AROCLOR 1254, Method: STANDARD PLATE inactive; negative | Test System: E. COLI, Strain/Indicator: CM561 LEXA, Metabolic Activation: NONE, Method: STANDARD PLATE inactive; negative | Test System: E. COLI, Strain/Indicator: CM611 UVRA/LEXA, Metabolic Activation: NONE, Method: STANDARD PLATE inactive; negative | [5] inactive; negative

CC/C=C\C#N
active: Test System: MOUSE LYMPHOMA, Strain/Indicator: L5178Y (TK+/TK-), Metabolic Activation: NONE, Method: SUSPENSION/PLATE active; positive. reevaluation of results: positive | Test System: Mouse lymphoma, Strain/Indicator: L5178Y (tk+/tk-), Metabolic Activation: Rat, Liver, S-9, Aroclor 1254, Method: Suspension/plate active; positive

Nc1ncc(/C=C/c2ccc([N+](=O)[O-])o2)nn1
active: Test System: E. COLI, Strain/Indicator: WP2, Metabolic Activation: NONE, Method: SPOT active; positive | Test System: E. COLI, Strain/Indicator: WP2 UVRA, Metabolic Activation: NONE, Method: SPOT active; positive | [5] active; positive
